Results on 13 compounds are retold here after patent publication US6686355B2, “Biphenyl sulfonamides useful as matrix metalloproteinase inhibitors” (Warner-Lambert Company, priority 2001, dated 2004).

Holding throughout (assay type): biochemical
Assay [1] has as its target T1, MMP-1FL (full length interstitial collagenase) (Homo sapiens, UniProt P03956).
T1 sequence (P03956 100-469): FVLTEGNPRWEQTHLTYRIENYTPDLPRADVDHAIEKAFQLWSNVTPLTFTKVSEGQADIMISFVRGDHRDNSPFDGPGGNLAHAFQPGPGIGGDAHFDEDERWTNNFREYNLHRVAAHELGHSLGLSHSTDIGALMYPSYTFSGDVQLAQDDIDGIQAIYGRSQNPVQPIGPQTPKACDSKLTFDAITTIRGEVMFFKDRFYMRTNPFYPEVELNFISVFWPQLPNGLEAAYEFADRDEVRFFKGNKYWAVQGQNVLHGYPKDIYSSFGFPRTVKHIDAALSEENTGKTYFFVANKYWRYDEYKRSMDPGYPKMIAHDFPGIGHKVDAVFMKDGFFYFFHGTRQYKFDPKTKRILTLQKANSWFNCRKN
Description: Thiopeptolide hydrolysis assay, MMP-1FL. The note with it: thiopeptolide substrate, HEPES pH 7.0, 22° C. The text has this:
(§1) The assays measure the amount by which a test compound reduces the hydrolysis of a thiopeptolide substrate catalyzed by a matrix metalloproteinase enzyme. Such assays are described in detail by Ye et al., in Biochemistry, 1992;31(45):11231-11235, which is incorporated herein by reference.
(§2) Thiopeptolide substrates show virtually no decomposition or hydrolysis at or below neutral pH in the absence of a matrix metalloproteinase enzyme. A typical thiopeptolide substrate commonly utilized for assays is Ac-Pro-Leu-Gly-thioester-Leu-Leu-Gly-OEt. A 100 μL assay mixture will contain 50 mM of N-2-hydroxyethylpiperazine-N′-2-ethanesulfonic acid buffer (“HEPES”) at pH 7.0, 10 mM CaCl2, 100 μM thiopeptolide substrate, and 1 mM 5,5″-dithio-bis-(2-nitro-benzoic acid) (DTNB). The thiopeptolide substrate concentration may be varied from, for example, 10 to 800 μM to obtain Km and Kcat values. The change in absorbance at 405 nm is monitored on a Thermo Max microplate reader (Molecular Devices, Menlo Park, Calif.) at room temperature (22° C.). The calculation of the amount of hydrolysis of the thiopeptolide substrate is based on E412=13600 M^−1 cm^−1 for the DTNB-derived product 3-carboxy4-nitrothiophenoxide. Assays are carried out with and without matrix metalloproteinase inhibitor compounds, and the amount of hydrolysis is compared for a determination of inhibitory activity of the test compounds.
(§3) Several representative compounds have been evaluated for their ability to inhibit various matrix metalloproteinase enzymes. In Table I, MMP-1FL refers to full length interstitial collagenase; MMP-2FL refers to full length Gelatinase A; MMP-3CD refers to the catalytic domain of stromelysin-1; MMP-7FL refers to full length matrilysin; MMP-9FL refers to full length Gelatinase B; MMP-13CD refers to the catalytic domain of collagenase 3; and MMP-14CD refers to the catalytic domain of MMP-14. Test compounds were evaluated at various concentrations in order to determine their respective IC50 values, the micromolar concentration of compound required to cause a 50% inhibition of the catalytic activity of the respective enzyme.

In assay [2] the target is T2, MMP-7FL (full length matrilysin) (Homo sapiens, UniProt P09237).
T2 sequence (P09237 95-267): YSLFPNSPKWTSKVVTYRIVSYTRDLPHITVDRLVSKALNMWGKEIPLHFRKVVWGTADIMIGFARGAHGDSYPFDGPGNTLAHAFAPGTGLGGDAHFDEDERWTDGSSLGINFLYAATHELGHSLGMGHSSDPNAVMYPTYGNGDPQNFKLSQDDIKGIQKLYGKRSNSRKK
The experiment in a line: Thiopeptolide hydrolysis assay, MMP-7FL. The note with it: thiopeptolide substrate, HEPES pH 7.0, 22° C.
Text: as §1, §2, §3

The target in assay [3] is T3, MMP-2FL (full length Gelatinase A) (Homo sapiens, UniProt P08253).
T3 sequence (P08253 110-660): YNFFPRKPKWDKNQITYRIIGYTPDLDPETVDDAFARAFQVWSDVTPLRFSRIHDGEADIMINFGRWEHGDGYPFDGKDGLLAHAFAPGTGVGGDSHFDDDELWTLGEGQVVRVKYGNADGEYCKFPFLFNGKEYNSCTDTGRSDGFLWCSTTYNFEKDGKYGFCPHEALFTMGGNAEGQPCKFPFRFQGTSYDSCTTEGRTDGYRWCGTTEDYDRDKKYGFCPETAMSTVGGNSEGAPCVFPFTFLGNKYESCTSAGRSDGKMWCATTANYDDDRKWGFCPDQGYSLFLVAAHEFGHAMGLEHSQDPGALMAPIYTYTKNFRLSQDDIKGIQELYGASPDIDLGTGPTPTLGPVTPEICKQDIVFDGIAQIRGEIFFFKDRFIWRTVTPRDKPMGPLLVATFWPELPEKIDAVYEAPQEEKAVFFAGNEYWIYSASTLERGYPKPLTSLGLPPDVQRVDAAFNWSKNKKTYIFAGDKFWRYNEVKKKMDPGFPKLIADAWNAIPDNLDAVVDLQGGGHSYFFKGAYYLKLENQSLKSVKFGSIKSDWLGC
The experiment in a line: Thiopeptolide hydrolysis assay, MMP-2FL. The conditions noted are these: thiopeptolide substrate, HEPES pH 7.0, 22° C.
Text: as §1, §2, §3

In assay [4] the target is MMP-3CD (catalytic domain of stromelysin-1) (Homo sapiens, UniProt P08254). Description: Thiopeptolide hydrolysis assay, MMP-3CD. The conditions noted are these: thiopeptolide substrate, MES pH 6.0.
Text: as §1, §2, §3
It should be appreciated that the assay buffer used with MMP-3CD was 50 mM of 2-morpholinoethanesulfonic acid monohydrate (“MES”) at pH 6.0 rather than the HEPES buffer at pH 7.0 described above.

In assay [5] the target is MMP-14CD (catalytic domain of MMP-14) (Homo sapiens, UniProt P50281). The experiment in a line: Thiopeptolide hydrolysis assay, MMP-14CD. The note with it: thiopeptolide substrate, HEPES pH 7.0, 22° C.
Text: as §1, §2, §3

In assay [6] the target is MMP-13CD (catalytic domain of collagenase 3) (Homo sapiens, UniProt P45452). Description: Thiopeptolide hydrolysis assay, MMP-13CD. The conditions noted are these: thiopeptolide substrate, HEPES pH 7.0, 22° C.
Text: as §1, §2, §3

Assay [7] deals with MMP-9FL (full length Gelatinase B) (Homo sapiens, UniProt P14780). Description: Thiopeptolide hydrolysis assay, MMP-9FL. The conditions noted are these: thiopeptolide substrate, HEPES pH 7.0, 22° C.
Text: as §1, §2, §3

Assay [8] has as its target T4, MMP-12CD (Homo sapiens, UniProt P39900).
T4 construct: MMP-12CD
The experiment in a line: Thiopeptolide hydrolysis assay, MMP-12CD. The conditions noted are these: thiopeptolide substrate, HEPES pH 7.0, 22° C.
Text: as §1, §2, §3

MMP-3CD (catalytic domain of stromelysin-1), sequence (P08254 100-272 limits assumed): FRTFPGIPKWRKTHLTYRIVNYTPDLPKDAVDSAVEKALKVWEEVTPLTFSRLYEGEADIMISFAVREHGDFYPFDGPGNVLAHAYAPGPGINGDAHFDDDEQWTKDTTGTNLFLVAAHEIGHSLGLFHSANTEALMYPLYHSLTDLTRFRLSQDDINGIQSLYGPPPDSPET
MMP-9FL (full length Gelatinase B), sequence (P14780 94-707, species assumed): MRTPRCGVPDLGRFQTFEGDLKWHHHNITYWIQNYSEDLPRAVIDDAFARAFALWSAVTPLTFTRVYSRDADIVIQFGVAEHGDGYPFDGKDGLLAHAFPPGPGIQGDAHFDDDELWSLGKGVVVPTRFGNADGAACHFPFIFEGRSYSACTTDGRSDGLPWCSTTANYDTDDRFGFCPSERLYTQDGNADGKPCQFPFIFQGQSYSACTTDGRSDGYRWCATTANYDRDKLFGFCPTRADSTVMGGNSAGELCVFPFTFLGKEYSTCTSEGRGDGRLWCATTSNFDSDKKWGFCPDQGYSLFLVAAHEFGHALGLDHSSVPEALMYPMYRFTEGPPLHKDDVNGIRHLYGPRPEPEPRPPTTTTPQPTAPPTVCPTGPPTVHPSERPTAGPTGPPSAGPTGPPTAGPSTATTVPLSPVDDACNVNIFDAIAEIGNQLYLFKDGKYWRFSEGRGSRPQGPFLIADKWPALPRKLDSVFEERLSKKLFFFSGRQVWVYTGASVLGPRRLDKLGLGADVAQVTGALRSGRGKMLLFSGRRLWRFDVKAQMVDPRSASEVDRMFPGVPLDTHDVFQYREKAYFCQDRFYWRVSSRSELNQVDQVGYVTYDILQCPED
T4 sequence (P39900 106-263 limits assumed): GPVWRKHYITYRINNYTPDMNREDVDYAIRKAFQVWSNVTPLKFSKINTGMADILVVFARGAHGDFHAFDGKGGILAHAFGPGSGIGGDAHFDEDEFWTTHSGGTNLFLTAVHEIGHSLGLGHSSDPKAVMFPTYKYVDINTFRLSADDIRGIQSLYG

For `CC1(C)[C@H](C(=O)O)N(S(=O)(=O)c2ccc(-c3ccc(Br)cc3)cc2)CCS1(=O)=O` [Example 3, (S)-4-(4′-Bromo-biphenyl-4-sulfonyl)-2,2-dimethyl-1,1-dioxo-thiomorpholine-3-carboxylic acid], the IC50 in assay [1] came out at 1.7 µM; in assay [2], 8.8 µM; in assay [3] it was 0.012 µM; in assay [4], 0.005 µM; in assay [5], 0.059 µM; in assay [6], 0.032 µM. For the same compound, in assay [7], inhibition was half-maximal at 0.78 µM (IC50).

On to `CC1(C)SCCN(S(=O)(=O)c2ccc(-c3ccc(Br)cc3)cc2)[C@H]1C(=O)O` [Example 1, (S)-4-(4′-Bromo-biphenyl-4-sulfonyl)-2,2-dimethyl-thiomorpholine-3-carboxylic acid], for which the IC50 in assay [1] amounted to 3.1 µM; in assay [2] it was 10 µM; in assay [3], 0.006 µM; in assay [4], 0.003 µM; in assay [5], 0.048 µM; in assay [6] it was 0.016 µM. In assay [7], the midpoint of inhibition, the IC50, lay at 0.26 µM.

Turning to `CC1(C)SCCN(S(=O)(=O)c2ccc(-c3ccc(Br)cc3)cc2)[C@H]1C(=O)NO` [Example 2, (S)-4-(4′-Bromo-biphenyl-4-sulfonyl)-2,2-dimethyl-thiomorpholine-3-carboxylic acid hydroxyamide], the IC50 in assay [1] amounted to 0.002 µM; in assay [2], 0.037 µM; in assay [3], 0.002 µM; in assay [4], 0.002 µM; in assay [5] it was 0.001 µM; in assay [6], 0.001 µM. The same compound registered an IC50 in assay [7] of 0.001 µM.

In the case of `CC1(C)[C@H](C(=O)NO)N(S(=O)(=O)c2ccc(-c3ccc(Br)cc3)cc2)CCS1(=O)=O` [Example 4, (S)-4-(4′-Bromo-biphenyl-4-sulfonyl)-2,2-dimethyl-1,1-dioxo-thiomorpholine-3-carboxylic acid hydroxyamide], the IC50 in assay [1] was determined as 0.005 µM; in assay [2], 0.031 µM; in assay [3], 0.001 µM; in assay [4], 0.003 µM; in assay [5] it was 0.002 µM; in assay [6], 0.001 µM. Moreover, the IC50 in assay [7] came out at 0.004 µM.

On to `COc1ccc(-c2ccc(S(=O)(=O)N3CCSC(C)(C)[C@@H]3C(=O)O)cc2)cc1C=O` [Example 48, (S)-4-(3′-Formyl-4′-methoxy-biphenyl-4-sulfonyl)-2,2-dimethyl-thiomorpholine-3-carboxylic acid], for which the 50% inhibitory concentration (IC50) in assay [3] was 1.55 µM; in assay [4] it was 0.775 µM; in assay [5], 0.037 µM; in assay [6], 2.04 µM; in assay [7], 25.8 µM.

Consider `Cc1cccc(-c2ccc(S(=O)(=O)N3CCSC(C)(C)[C@@H]3C(=O)O)cc2)c1` [Example 31, (S)-2,2-Dimethyl-4-(3′-methyl-biphenyl-4-sulfonyl)-thiomorpholine-3-carboxylic acid], for which the IC50 in assay [3] was greater than 100 µM; in assay [4], greater than 100 µM; in assay [6], greater than 100 µM; in assay [7], 1.57 µM.

Consider `CC1(C)SCCN(S(=O)(=O)c2ccc(-c3ccc(C=O)cc3)cc2)[C@H]1C(=O)O` [Example 30, (S)-4-(4′-Formyl-biphenyl-4-sulfonyl)-2,2-dimethyl-thiomorpholine-3-carboxylic acid], for which the half-inhibitory concentration (IC50) was determined as 0.042 µM in assay [3], 0.0154 µM in assay [4], 0.096 µM in assay [6] and 3.6 µM in assay [7].

On to `CC1(C)SCCN(S(=O)(=O)c2ccc(-c3ccc(OC(F)(F)F)cc3)cc2)[C@H]1C(=O)O` [Example 45, (S)-2,2-Dimethyl-4-(4′-trifluoromethoxy-biphenyl-4-sulfonyl)-thiomorpholine-3-carboxylic acid], for which the IC50 is 5.75 µM in assay [1]; 0.0027 µM in assay [3]; 0.004 µM in assay [4]; 0.128 µM in assay [5]; 0.001 µM in assay [8]; 0.098 µM in assay [7].

`CC(=O)c1cccc(-c2ccc(S(=O)(=O)N3CCSC(C)(C)[C@@H]3C(=O)O)cc2)c1` [Example 61, (S)-4-(3′-Acetyl-biphenyl-4-sulfonyl)-2,2-dimethyl-thiomorpholine-3-carboxylic acid]: the IC50 is 3.4 µM in assay [3], 0.763 µM in assay [4], 2.9 µM in assay [6] and 49 µM in assay [7].

On to `CC1(C)SCCN(S(=O)(=O)c2ccc(-c3cccc(Cl)c3)cc2)[C@H]1C(=O)O` [Example 34, (S)-4-(3′-Chloro-biphenyl-4-sulfonyl)-2,2-dimethyl-thiomorpholine-3-carboxylic acid], for which the IC50 in assay [3] amounted to 0.187 µM; in assay [4] it was 0.0703 µM; in assay [6] it was 0.243 µM; in assay [7], 10.3 µM.

As to `CC1(C)SCCN(S(=O)(=O)c2ccc(-c3cccc4ccccc34)cc2)[C@H]1C(=O)O` [Example 28, (S)-2,2-Dimethyl-4-(4-naphthalen-1-yl-benzenesulfonyl)-thiomorpholine-3-carboxylic acid], the IC50 in assay [3] came out at 2.07 µM; in assay [4], 2.2 µM; in assay [6] it was 2.67 µM; in assay [7] it was 22.8 µM.

As for `CN(C)c1ccc(-c2ccc(S(=O)(=O)N3CCSC(C)(C)[C@@H]3C(=O)O)cc2)cc1` [Example 54], the 50% inhibitory concentration (IC50) turned out to be 11.3 µM in assay [1]; 0.024 µM in assay [3]; 0.03 µM in assay [4]; 0.19 µM in assay [5]; 0.013 µM in assay [6]; 0.0103 µM in assay [8]. In assay [7], this compound showed an IC50 of 0.17 µM.

`CC1(C)SCCN(S(=O)(=O)c2ccc(-c3ccc(CO)cc3)cc2)[C@H]1C(=O)O` [Example 5, (S)-4-(4′-Hydroxymethyl-biphenyl-4-sulfonyl)-2,2-dimethyl-thiomorpholine-3-carboxylic acid]: the IC50 in assay [1] came to 1.5 µM; in assay [2], 10 µM; in assay [3], 0.018 µM; in assay [4], 0.027 µM; in assay [5], 0.24 µM; in assay [6], 0.047 µM. For the same compound, the IC50 in assay [7] was determined as 0.063 µM.

A word on the IC50: it is the midpoint of a concentration-inhibition curve. High values mean weaker potency in that assay, low ones greater potency in that assay.
